Results published in US7217735B1, “Methods and compositions for enhancing delivery of therapeutic agents to tissues” (priority 1999, dated 2007).

Assays:
FaDu xenograft tumors [1] = test: Paclitaxel uptake in tumor histocultures
From the text: FaDu cells were obtained from American Type Culture Collection (Rockville, Mass.). MCF7 cells were obtained from Dr. Kenneth Cowan at the National Cancer Institute. Cells were harvested from subconfluent cultures using trypsin and resuspended in fresh medium before plating. Cells with greater than 90% viability, as determined by trypan blue exclusion, were used for tumor implantation. Cells were centrifuged and resuspended in Matrigel (1:1 v/v). […] The tumor establishment was achieved by subcutaneously injecting 10^6 cells (0.1–0.2 ml) with a 18 gauge needle at left and right sides of the upper back. The tumor was removed when it reached a size of 0.5 to 1 g and used for experiments.
(§1) The specimens were washed with culture medium for three times and dissected into about 1 mm^3 fragments under sterile conditions. The culture medium consisted of a 1:1 mixture of MEM/DMEM for patient tumors, MEM for FaDu xenografts, and RPMI1640 for PC3 xenografts, supplemented with 9% heat-inactivated FBS, 2 mM glutamine, 0.1 mM non-essential amino acids (only for MEM/DMEM), 90:g/ml gentamicin and 90:g/ml cefotaxime sodium. Five histoculture fragments were placed on a 1 cm^2 piece of presoaked collagen gel and incubated with 4 ml culture medium in 6-well plates. After 2 to 4 days, tumor histocultures were used to study the kinetics of drug penetration.
(§2) At predetermined times, 100 μl of medium was taken from each well and the histocultures were removed from the plates. The histocultures were blot-dried on a filter paper and their weights were measured. One hundred 1 of medium or tumor samples were mixed with 0.5 ml of Solvable tissue/gel solubilizer, incubated at 50° C. in an oven overnight, and analyzed for total radioactivity using liquid scintillation counting. […] Drug concentration in tissue was calculated as (drug amount) divided by (tissue weight) and was expressed in molar terms.
For the FaDu xenograft tumor, specimens from individual animals were sufficiently large that each tumor was used for studying uptake and efflux at all four drug concentrations.

[2] = test system: FaDu xenograft tumor histocultures; test: Apoptotic cell fraction in paclitaxel-treated histocultures (Example 1); type: cell-based, human
Procedure: The fractions of stromal tissue and tumor cells in each histoculture were measured using image analysis. Briefly, stromal and tumor cells of a 100× magnification field were outlined with the computer mouse. The sizes of each of these regions were determined via image analysis by counting the number of pixels in the region. […] Apoptotic cells were determined based on morphological changes in tumor cells such as chromatin condensation and margination, disappearance of nucleoli, formation of membrane blebs, apoptotic bodies and/or cell shrinkage (Kerr J F R et al. (1994) Cancer 73:2013). […] For each tumor piece, 50 to 100 images were processed, and the fractions of the tumor represented by tumor cells, stromal tissue, and interstitial space were calculated.

[3] = test system: patient head and neck tumors; test: Paclitaxel uptake in tumor histocultures
Procedure: as §1
This study was performed using head and neck tumors from human patients and the human pharynx FaDu xenograft tumors maintained in athymic mice.
as §2
(§3) The study design of experiments using patient tumors was dictated by the size of the specimens. On some occasions, specimens from an individual patient were only sufficient to study drug uptake and efflux at one or more but not all drug concentrations. A total of 7 head and neck tumors and 3 ovarian tumors were used. For the FaDu xenograft tumor, specimens from individual animals were sufficiently large that each tumor was used for studying uptake and efflux at all four drug concentrations.
(§4) The statistical significance of the differences among patient (head and neck and ovarian, n=6) and FaDu (n=3) tumors, at equal initial medium concentrations, were analyzed by the two-tailed unpaired Student's t-test.

[4] = test system: FaDu xenograft tumor histocultures; test: [3H]paclitaxel penetration by autoradiography; type: in vitro ADME, human; conditions: 120 nM
Procedure: The autoradiographic method was as described previously (Lesser G J et al. (1995) Cancer Chemother Pharmacol 37:173–178). […] Tissue samples were mounted on cryostat chucks with embedding matrix (O.C.T. Compound, Miles Inc., Ellchart, Ind.) and cut into 10 μm thick sections in a cryostat at −20° C. […] The slides containing the tissue sections were placed against tritium-sensitive film (Ultrofilm) in an X-ray cassette and exposed for one to two weeks at room temperature. The films were developed for 3–5 minutes at room temperature (D-19 Developer), placed in a stop bath for 30 seconds, immersed in fixer for 3 minutes and exposed to running room temperature water for 15 minutes. The films were then rinsed in Photo-flo 200 and allowed to air-dry. Separately, the tissue section slides were stained with hematoxylin and eosin.
The threshold for the autoradiographic image was adjusted to minimize the background signal.

FaDu tumor histocultures = test: Apoptotic fraction and cell density with or without apoptosis-inducing pretreatment, in vitro; type: cell-based, human; parameters: Cell density: unit not given here
Procedure: Drug treatment was as previously described.
Two studies were performed.

patient ovarian tumors [5] = test: Paclitaxel efflux from tumor histocultures; type: in vitro ADME, human
patient ovarian tumors [6] = test: Paclitaxel uptake in tumor histocultures
Procedure: as §1, §2, §3, §4

FaDu xenograft tumors [7] = test: Paclitaxel efflux from tumor histocultures; type: in vitro ADME, human
[8] = 10 nM [3H]paclitaxel, 4 hr, with pretreatment by 1:M nonradiolabeled paclitaxel
[9] = 10 nM [3H]paclitaxel, 4 hr, without pretreatment
[10] = 10 nM [3H]paclitaxel, 16 hr, with pretreatment by 1:M nonradiolabeled paclitaxel
[11] = 10 nM [3H]paclitaxel, 16 hr, without pretreatment
[12] = 10 nM [3H]paclitaxel, 24 hr, with pretreatment by 1:M nonradiolabeled paclitaxel
[13] = 10 nM [3H]paclitaxel, 24 hr, without pretreatment
[14] = 10 nM [3H]paclitaxel, 32 hr, with pretreatment by 1:M nonradiolabeled paclitaxel
[15] = 10 nM [3H]paclitaxel, 32 hr, without pretreatment
[16] = 10 nM [3H]paclitaxel, 48 hr, with pretreatment by 1:M nonradiolabeled paclitaxel
[17] = 10 nM [3H]paclitaxel, 48 hr, without pretreatment
[18] = 10 nM [3H]paclitaxel, 72 hr, with pretreatment by 1:M nonradiolabeled paclitaxel
[19] = 10 nM [3H]paclitaxel, 72 hr, without pretreatment
[20] = 50 nM [3H]paclitaxel, 4 hr, with pretreatment by 1:M nonradiolabeled paclitaxel
[21] = 50 nM [3H]paclitaxel, 4 hr, without pretreatment
[22] = 50 nM [3H]paclitaxel, 16 hr, with pretreatment by 1:M nonradiolabeled paclitaxel
[23] = 50 nM [3H]paclitaxel, 16 hr, without pretreatment
[24] = 50 nM [3H]paclitaxel, 24 hr, with pretreatment by 1:M nonradiolabeled paclitaxel
[25] = 50 nM [3H]paclitaxel, 24 hr, without pretreatment
[26] = 50 nM [3H]paclitaxel, 32 hr, with pretreatment by 1:M nonradiolabeled paclitaxel
[27] = 50 nM [3H]paclitaxel, 32 hr, without pretreatment
[28] = 50 nM [3H]paclitaxel, 48 hr, with pretreatment by 1:M nonradiolabeled paclitaxel
[29] = 50 nM [3H]paclitaxel, 48 hr, without pretreatment
[30] = 50 nM [3H]paclitaxel, 72 hr, with pretreatment by 1:M nonradiolabeled paclitaxel
[31] = 50 nM [3H]paclitaxel, 72 hr, without pretreatment
[32] = 50 nM x 24 hr, 24 hr after initiation of treatment
[33] = 50 nM x 24 hr, 36 hr after initiation of treatment
[34] = 600 nM x 1 hr, 23 hr later 50 nM x 12 hr, 24 hr after initiation of treatment
[35] = 600 nM x 1 hr, 23 hr later 50 nM x 12 hr, 36 hr after initiation of treatment
[36] = initial Cmedium 120 nM for 24 hr, at 24 hr post-treatment
[37] = initial Cmedium 120 nM for 24 hr, at 72 hr post-treatment
[38] = initial Cmedium 1,200 nM for 24 hr, at 24 hr post-treatment
[39] = initial Cmedium 1,200 nM for 24 hr, at 72 hr post-treatment

CC(=O)O[C@H]1C(=O)[C@@]2(C)[C@H]([C@H](OC(=O)c3ccccc3)[C@]3(O)C[C@H](OC(=O)[C@H](O)[C@@H](NC(=O)c4ccccc4)c4ccccc4)C(C)=C1C3(C)C)[C@]1(OC(C)=O)CO[C@@H]1C[C@@H]2O [paclitaxel]
Mass balance (FaDu xenograft tumors [1]; initial Cmedium 12 nM): 92.5 ± 5.1% | Steady state Cmedium (FaDu xenograft tumors [1]; initial Cmedium 12 nM): 9.09 ± 0.27 nM | Mass balance (FaDu xenograft tumors [1]; initial Cmedium 120 nM): 86.5 ± 2.8% | Steady state Cmedium (FaDu xenograft tumors [1]; initial Cmedium 120 nM): 89.7 ± 13.3 nM | Mass balance (FaDu xenograft tumors [1]; initial Cmedium 1,200 nM): 89.4 ± 5.7% | Steady state Cmedium (FaDu xenograft tumors [1]; initial Cmedium 1,200 nM): 887 ± 131 nM | Mass balance (FaDu xenograft tumors [1]; initial Cmedium 12,000 nM): 90.2 ± 5.4% | Steady state Cmedium (FaDu xenograft tumors [1]; initial Cmedium 12,000 nM): 8,910 ± 267 nM | fraction of apoptotic cells ([2]; 12 nM, remained relatively constant): ≥ 7% | fraction of apoptotic cells ([2]; 120 nM, at 24 hours): ~30% | fraction of apoptotic cells ([2]; 120 nM, at 72 hours): ~50% | Mass balance ([3]; initial Cmedium 12 nM): 91.2 ± 3.5% | Steady state Cmedium ([3]; initial Cmedium 12 nM): 10.9 ± 1.0 nM | Mass balance ([3]; initial Cmedium 120 nM): 83.8 ± 7.6% | Steady state Cmedium ([3]; initial Cmedium 120 nM): 83.0 ± 0.7 nM | Steady state Ctumor ([3]; initial Cmedium 120 nM): 5.77 ± 1.52 :M | Mass balance ([3]; initial Cmedium 1,200 nM): 87.5 ± 6.5% | Steady state Cmedium ([3]; initial Cmedium 1,200 nM): 925 ± 25 nM | Steady state Ctumor ([3]; initial Cmedium 1,200 nM): 22.0 ± 6.2 :M | Mass balance ([3]; initial Cmedium 12,000 nM): 91.5 ± 3.5% | Steady state Cmedium ([3]; initial Cmedium 12,000 nM): 9,870 ± 59 nM | Steady state Ctumor ([3]; initial Cmedium 12,000 nM): 341 ± 125 :M | cell layers penetrated ([4]; during the first 24 hours): 15 cell layers | cell layers penetrated ([4]; during the second 24 hours): > 80 cell layers | Apoptotic fraction (FaDu tumor histocultures; [8]): 23.6 ± 1.3% | Cell density (FaDu tumor histocultures; [8]): 64.2 ± 3.5 | Apoptotic fraction (FaDu tumor histocultures; [9]): 3.93 ± 0.87% | Cell density (FaDu tumor histocultures; [9]): 86.3 ± 4.0 | Apoptotic fraction (FaDu tumor histocultures; [10]): 24.6 ± 4.8% | Cell density (FaDu tumor histocultures; [10]): 64.3 ± 1.8 | Apoptotic fraction (FaDu tumor histocultures; [11]): 4.98 ± 0.84% | Cell density (FaDu tumor histocultures; [11]): 80.2 ± 2.9 | Apoptotic fraction (FaDu tumor histocultures; [12]): 26.6 ± 2.4% | Cell density (FaDu tumor histocultures; [12]): 64.0 ± 5.2 | Apoptotic fraction (FaDu tumor histocultures; [13]): 7.32 ± 1.80% | Cell density (FaDu tumor histocultures; [13]): 81.6 ± 2.5 | Apoptotic fraction (FaDu tumor histocultures; [14]): 30.1 ± 3.4% | Cell density (FaDu tumor histocultures; [14]): 60.1 ± 4.2 | Apoptotic fraction (FaDu tumor histocultures; [15]): 6.64 ± 1.07% | Cell density (FaDu tumor histocultures; [15]): 79.9 ± 2.1 | Apoptotic fraction (FaDu tumor histocultures; [16]): 34.9 ± 5.2% | Cell density (FaDu tumor histocultures; [16]): 62.3 ± 3.1 | Apoptotic fraction (FaDu tumor histocultures; [17]): 9.18 ± 1.31% | Cell density (FaDu tumor histocultures; [17]): 77.8 ± 3.0 | Apoptotic fraction (FaDu tumor histocultures; [18]): 31.0 ± 4.4% | Cell density (FaDu tumor histocultures; [18]): 61.0 ± 2.2 | Apoptotic fraction (FaDu tumor histocultures; [19]): 11.0 ± 1.7% | Cell density (FaDu tumor histocultures; [19]): 82.6 ± 2.2 | Apoptotic fraction (FaDu tumor histocultures; [20]): 26.3 ± 5.4% | Cell density (FaDu tumor histocultures; [20]): 63.1 ± 4.5 | Apoptotic fraction (FaDu tumor histocultures; [21]): 2.74 ± 0.12% | Cell density (FaDu tumor histocultures; [21]): 85.8 ± 3.6 | Apoptotic fraction (FaDu tumor histocultures; [22]): 36.0 ± 3.9% | Cell density (FaDu tumor histocultures; [22]): 60.8 ± 4.9 | Apoptotic fraction (FaDu tumor histocultures; [23]): 7.97 ± 2.03% | Cell density (FaDu tumor histocultures; [23]): 83.9 ± 3.3 | Apoptotic fraction (FaDu tumor histocultures; [24]): 36.4 ± 2.0% | Cell density (FaDu tumor histocultures; [24]): 58.3 ± 1.1 | Apoptotic fraction (FaDu tumor histocultures; [25]): 17.0 ± 2.8% | Cell density (FaDu tumor histocultures; [25]): 77.0 ± 3.8 | Apoptotic fraction (FaDu tumor histocultures; [26]): 37.4 ± 4.5% | Cell density (FaDu tumor histocultures; [26]): 53.2 ± 2.1 | Apoptotic fraction (FaDu tumor histocultures; [27]): 19.1 ± 2.5% | Cell density (FaDu tumor histocultures; [27]): 71.2 ± 4.6 | Apoptotic fraction (FaDu tumor histocultures; [28]): 39.8 ± 3.1% | Cell density (FaDu tumor histocultures; [28]): 53.6 ± 2.4 | Apoptotic fraction (FaDu tumor histocultures; [29]): 28.3 ± 2.9% | Cell density (FaDu tumor histocultures; [29]): 68.8 ± 2.5 | Apoptotic fraction (FaDu tumor histocultures; [30]): 37.9 ± 3.4% | Cell density (FaDu tumor histocultures; [30]): 47.8 ± 3.2 | Apoptotic fraction (FaDu tumor histocultures; [31]): 27.2 ± 3.0% | Cell density (FaDu tumor histocultures; [31]): 61.1 ± 2.8 | Apoptotic fraction (FaDu tumor histocultures; [32]): 15.2% | Cell density (FaDu tumor histocultures; [32]): 71.3 ± 2.9 | Apoptotic fraction (FaDu tumor histocultures; [33]): 17.0% | Cell density (FaDu tumor histocultures; [33]): 72.6 ± 3.2 | Apoptotic fraction (FaDu tumor histocultures; [34]): 20.3 ± 4.3% | Cell density (FaDu tumor histocultures; [34]): 60.9 ± 1.3 | Apoptotic fraction (FaDu tumor histocultures; [35]): 25.4 ± 3.4% | Cell density (FaDu tumor histocultures; [35]): 62.4 ± 4.2 | apoptosis caused by pretreatment (FaDu tumor histocultures; 1,000 nM nonradiolabeled paclitaxel for 3 hr, at 24 hr, preliminary study): ~30% | % remaining in tumor (patient ovarian tumors [5]; [36]): 39.8 ± 14.2% | Cmedium (patient ovarian tumors [5]; [36]): 1.19 ± 0.24 nM | Ctumor (patient ovarian tumors [5]; [36]): 0.615 ± :M | % remaining in tumor (patient ovarian tumors [5]; [37]): 35.7 ± 18.5% | Cmedium (patient ovarian tumors [5]; [37]): 1.60 ± 0.26 nM | Ctumor (patient ovarian tumors [5]; [37]): 0.520 ± 0.196 :M | T1/2,efflux (patient ovarian tumors [5]; initial Cmedium 1,200 nM for 24 hr): 5.00 ± 2.93 h | % remaining in tumor (patient ovarian tumors [5]; [38]): 25.9 ± 8.3% | Cmedium (patient ovarian tumors [5]; [38]): 12.8 ± 3.41 nM | Ctumor (patient ovarian tumors [5]; [38]): 5.13 ± :M | % remaining in tumor (patient ovarian tumors [5]; [39]): 19.8 ± 6.6% | Cmedium (patient ovarian tumors [5]; [39]): 16.7 ± 2.9 nM | Ctumor (patient ovarian tumors [5]; [39]): 4.20 ± 1.79 :M | Mass balance (patient ovarian tumors [6]; initial Cmedium 12 nM): 89.3 ± 5.4% | Steady state Cmedium (patient ovarian tumors [6]; initial Cmedium 12 nM): 10.6 ± 0.7 nM | Steady state Ctumor (patient ovarian tumors [6]; initial Cmedium 12 nM): 1.32 ± 0.31 :M | Mass balance (patient ovarian tumors [6]; initial Cmedium 120 nM): 84.5 ± 7.3% | Steady state Cmedium (patient ovarian tumors [6]; initial Cmedium 120 nM): 86.4 ± 2.3 nM | Steady state Ctumor (patient ovarian tumors [6]; initial Cmedium 120 nM): 2.86 ± 1.28 :M | Mass balance (patient ovarian tumors [6]; initial Cmedium 1,200 nM): 85.2 ± 2.5% | Steady state Cmedium (patient ovarian tumors [6]; initial Cmedium 1,200 nM): 870 ± 2.6 nM | Steady state Ctumor (patient ovarian tumors [6]; initial Cmedium 1,200 nM): 30.1 ± 11.7 :M | Mass balance (patient ovarian tumors [6]; initial Cmedium 12,000 nM): 93.3 ± 4.5% | Steady state Cmedium (patient ovarian tumors [6]; initial Cmedium 12,000 nM): 10,500 ± 920 nM | Steady state Ctumor (patient ovarian tumors [6]; initial Cmedium 12,000 nM): 211 ± 80 :M | Cmedium (FaDu xenograft tumors [7]; [36]): 0.989 ± 0.228 nM | Ctumor (FaDu xenograft tumors [7]; [36]): 3.88 ± :M | Cmedium (FaDu xenograft tumors [7]; [37]): 1.42 ± 0.18 nM | Ctumor (FaDu xenograft tumors [7]; [37]): 3.84 ± 1.04 :M | Cmedium (FaDu xenograft tumors [7]; [38]): 12.2 ± 1.3 nM | Ctumor (FaDu xenograft tumors [7]; [38]): 23.2 ± :M | Cmedium (FaDu xenograft tumors [7]; [39]): 18.9 ± 5.5 nM | Ctumor (FaDu xenograft tumors [7]; [39]): 17.7 ± 3.7 :M
